Reference: US10125100B2, “Kinase inhibitors” (Respivert Limited, priority 2014, dated 2018)

Tests used:
Syk = Syk (Homo sapiens (Human), UniProt P43405); assay: Syk enzyme inhibition, Z-LYTE FRET; assay type: biochemical
Outline: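 Syk or c-Src enzyme (3000 or 2000 ng/mL solutions) was preincubated 2 h at RT with compound solutions at 1, 0.1, 0.01 or 0.001 µg/mL. Z-LYTE FRET peptide (8 µM solution) and ATP (800 µM solution for c-Src, 60 µM for Syk) were then added for 1 h, followed by protease development for 1 h. Phosphorylation was read as the coumarin/fluorescein emission ratio.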

Jurkat cells = assay: (r) Cell cytotoxicity assay; assay type: cell-based, human; settings: 24 hours
Outline: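 Viability read by flow cytometry as the fraction of propidium iodide-negative cells (7.5 μg/mL PI, 15 min), relative to 1.0% DMSO control. Beforehand, 1×10^5 Jurkat cells in RPMI/10% FBS were treated 24 h at 37° C., 5% CO2 with test compound at final 20, 5 or 1 μg/mL.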

[1] = tested on: Salmonella typhimurium, strains TA1535, TA1537, TA98 and TA100; assay: Bacterial reverse mutation screen; settings: for toxicity of the test item to the bacteria (mean colony count): at the highest doses (500-5000 μg/plate) in some strains; for mutagenic effects (revertant numbers): plate incorporation, presence and absence of S-9 mix
[2] = Hydrolytic stability study; assay type: physicochemical; settings: DMSO/water (3:1), 1 mg/mL
Method: Chemical stability of compounds of the invention was assessed in a mixture of DMSO and water (3:1) at a test compound concentration of 1 mg/mL.
General HPLC Procedure • Agilent, Waters X-Select C18, 2.5 μm, 4.6×30 mm column, 4 min method, 5-95% MeCN/water (0.1% formic acid). Flow rate 2.5 mL/min. Column Oven Temperature 40° C. Detection 254 nm.
Sample Preparation • A 1.0 mg sample of test compound was dissolved in 750 μL of DMSO. Water (250 μL) was added slowly, ensuring no precipitation occurred.
Recording Stability • A 50 μL aliquot of the test solution was removed and analysed in duplicate by 5 μL HPLC injections. The peak area for the test compound was recorded following manual integration of the corresponding UV trace. • The test solution was heated to 60° C., with stirring, and 50 μL aliquots removed for HPLC analysis at 5 and 24 h timepoints.

[3] = tested on: Escherichia coli, WP2 uvrA; assay: Bacterial reverse mutation screen; settings: for mutagenic effects (revertant numbers): plate incorporation, presence and absence of S-9 mix
p38 MAPKα (MAPK14) = p38 MAPKα (MAPK14) (Homo sapiens (Human), UniProt Q16539); assay: p38 MAPKα enzyme inhibition (Method 2), Z-LYTE FRET; assay type: biochemical
p38 MAPKα (MAPK14), sequence (Q16539 whole entry): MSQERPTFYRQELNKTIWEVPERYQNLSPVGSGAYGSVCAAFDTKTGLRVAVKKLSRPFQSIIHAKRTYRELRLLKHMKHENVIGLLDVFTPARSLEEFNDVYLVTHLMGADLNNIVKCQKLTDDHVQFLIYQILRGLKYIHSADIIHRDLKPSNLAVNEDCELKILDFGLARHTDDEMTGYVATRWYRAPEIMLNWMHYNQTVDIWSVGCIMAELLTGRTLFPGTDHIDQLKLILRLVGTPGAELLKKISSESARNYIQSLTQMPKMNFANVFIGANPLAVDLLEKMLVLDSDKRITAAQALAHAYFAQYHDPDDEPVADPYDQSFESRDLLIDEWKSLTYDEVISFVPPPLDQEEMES
Outline: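 Enzyme (200 ng/mL solution) was preincubated 2 h at RT with compound solutions of 1, 0.1, 0.01 or 0.001 μg/mL, and inhibition was read indirectly via MAPKAP-K2 activation/phosphorylation. After a 1 h RT reaction and 1 h protease development, phosphorylation was derived from the coumarin/fluorescein emission ratio.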

B-Raf = B-Raf (Homo sapiens (Human), UniProt P15056); assay: KINOMEscan binding of kinase to standard ligand; settings: KINOMEscan technology
B-Raf, sequence (P15056 whole entry): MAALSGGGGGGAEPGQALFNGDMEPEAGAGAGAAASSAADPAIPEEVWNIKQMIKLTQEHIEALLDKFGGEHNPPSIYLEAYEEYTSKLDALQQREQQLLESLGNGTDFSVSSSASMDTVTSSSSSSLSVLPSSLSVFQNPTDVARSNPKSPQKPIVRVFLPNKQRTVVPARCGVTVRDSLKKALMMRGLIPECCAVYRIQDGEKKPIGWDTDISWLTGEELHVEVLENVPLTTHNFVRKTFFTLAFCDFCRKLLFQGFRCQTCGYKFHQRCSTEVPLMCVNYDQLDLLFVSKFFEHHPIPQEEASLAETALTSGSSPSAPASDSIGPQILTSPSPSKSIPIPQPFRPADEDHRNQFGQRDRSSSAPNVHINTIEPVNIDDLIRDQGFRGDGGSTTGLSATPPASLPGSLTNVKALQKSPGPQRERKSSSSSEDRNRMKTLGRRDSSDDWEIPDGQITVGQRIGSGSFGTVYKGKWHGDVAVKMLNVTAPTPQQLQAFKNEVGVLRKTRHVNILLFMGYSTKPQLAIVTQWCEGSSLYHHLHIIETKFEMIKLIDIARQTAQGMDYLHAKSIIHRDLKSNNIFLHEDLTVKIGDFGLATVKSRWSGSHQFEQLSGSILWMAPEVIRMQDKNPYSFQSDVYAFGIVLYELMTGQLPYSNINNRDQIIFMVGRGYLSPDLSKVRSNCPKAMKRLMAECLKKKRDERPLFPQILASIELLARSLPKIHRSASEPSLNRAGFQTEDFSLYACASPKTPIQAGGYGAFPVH
Excerpt: (§1) These assays may be conducted by DiscoverX (formerly Ambit; San Diego, Calif.).

B-Raf (V600E) = B-Raf (V600E) (Homo sapiens (Human), UniProt P15056, V600E); assay: KINOMEscan binding of kinase to standard ligand; settings: KINOMEscan technology
B-Raf (V600E), sequence (P15056 whole entry V600E): as the sequence (P15056 whole entry) above, with V600E counted along it
Excerpt: as §1

c-Src = c-Src (Homo sapiens (Human), UniProt P12931); assay: c-Src enzyme inhibition, Z-LYTE FRET; assay type: biochemical
c-Src, sequence (P12931 whole entry, looked up): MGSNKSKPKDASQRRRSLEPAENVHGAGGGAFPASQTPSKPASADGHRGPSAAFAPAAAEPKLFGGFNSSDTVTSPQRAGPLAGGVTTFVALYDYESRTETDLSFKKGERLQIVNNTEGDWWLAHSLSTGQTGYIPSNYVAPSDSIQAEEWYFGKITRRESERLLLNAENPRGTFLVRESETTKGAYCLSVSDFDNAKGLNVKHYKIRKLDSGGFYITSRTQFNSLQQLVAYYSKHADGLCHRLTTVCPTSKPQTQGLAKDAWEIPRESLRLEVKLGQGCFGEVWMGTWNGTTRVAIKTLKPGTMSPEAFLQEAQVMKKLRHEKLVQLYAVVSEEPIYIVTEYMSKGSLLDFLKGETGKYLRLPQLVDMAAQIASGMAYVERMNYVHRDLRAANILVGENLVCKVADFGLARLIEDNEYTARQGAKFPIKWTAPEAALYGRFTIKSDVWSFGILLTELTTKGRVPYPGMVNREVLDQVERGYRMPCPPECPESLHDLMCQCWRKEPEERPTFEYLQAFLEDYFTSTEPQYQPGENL
Outline: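 Z-LYTE FRET peptide phosphorylation read as donor coumarin over acceptor fluorescein ratio after 1 hr protease development. Compounds (1–0.001 μg/mL) preincubated 2 hr at RT with enzyme; ATP solutions 60 μM for Syk, 800 μM for c-Src; kinase reaction 1 hr.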

non-mutant kinases = assay: KinomeScan selectivity scores; assay type: binding; settings: for number of individual kinase hits S(1): % Ctrl <1; for number of individual kinase hits S(10): % Ctrl <10; for number of individual kinase hits S(35): % Ctrl <35; for KinomeScan Selectivity Score S(10): non-mutant kinases with % Ctrl <10 / kinases tested; for KinomeScan Selectivity Score S(35): non-mutant kinases with % Ctrl <35 / kinases tested
Excerpt: as §1

mitosis in PBMCs = assay: (g) Cell mitosis assay; assay type: cell-based; settings: Homo sapiens, PBMC, 5 μg/mL
Outline: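 Healthy-donor PBMCs stimulated with 2% PHA for 48 hr, then exposed to test compounds at varying concentrations for 20 hr; demecolcine (0.1 μg/mL) added 2 hr before collection for metaphase arrest. Cells fixed/permeabilized, stained with anti-phospho-histone 3 and propidium iodide; mitotic cells counted by flow cytometry gating on lymphocytes.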

[4] = tested on: LPS-stimulated Lewis rats; assay: (vi) Endotoxin-induced uveitis in rats; assay type: in vivo, rat
Method: Male, Lewis rats (6-8 weeks old, Charles River UK Limited) are housed in cages of 3 at 19-21° C. with a 12 h light/dark cycle (07:00/19:00) and fed a standard diet of rodent chow and water ad libitum. Non-fasted rats are weighed, individually identified on the tail with a permanent marker, and receive a single intravitreal administration into the right vitreous humor (5 μL dose volume) of 100 ng/animal of LPS (Escherichia coli 0111:B4 prepared in PBS, Sigma Aldrich, UK) using a 32-gauge needle. Untreated rats are injected with PBS. Test compound or vehicle (4% polyoxyl 40 stearate, 4% mannitol in PBS ([…])) are administered by the topical route onto the right eye (10 μL) of animals 1 hour prior to LPS, at the time of LPS administration, and 1, 2 and 4 hours post LPS administration. Before administration, the solution to be administered is sonicated to ensure a clear solution. 6 hours after LPS dosing, animals are euthanized by overdose with pentobarbitone (via cardiac puncture). Immediately after euthanasia, 10 μL of aqueous humor is collected from the right eye of the rats by puncture of the anterior chamber using a 32 gauge needle under a surgical microscope. The aqueous humor is diluted in 20 μL of PBS and total cell counts are measured immediately using a Countess automated cell counter (Invitrogen). Following collection of the aqueous humour, the right eye of each animal is enucleated and dissected into front (anterior) and back (posterior) sections around the lens. Each section is weighed and homogenised in 500 μL of sterile phosphate buffered saline followed by 20 minutes centrifugation at 12000 rpm at 4° C. The resulting supernatant is divided into 3 aliquots and stored at −80° C. until subsequent cytokine analysis by R&D DuoSet ELISA.

[5] = Stability of pharmaceutical formulations; assay type: physicochemical
Method: The samples were sonicated to achieve clear solutions having the following properties: Osmolality (mOsm/kg): 310 (Na), 314 (HCl); pH: 7.00 (Na), 7.05 (HCl). 0.5 mL of the stock solutions were diluted to 1 mL with 20% DMSO in water & injected for purity analysis by HPLC. The remaining stock solutions were then split into aliquots of 0.5 mL in HPLC vials, and stored at various conditions in duplicate. Samples were stored at 5 and 25° C., before being analysed by HPLC at 1, 2 and 4 weeks. Separate samples were stored at 40° C. and analysed at 4 weeks.

[6] = tested on: eyes of albino New Zealand White rabbits
[7] = rats treated with intravitreal endotoxin LPS
[8] = sodium (Na) salt, 1 mg/mL in 10 mM pH 7.2 phosphate buffer, 4.5% mannitol, 3% polyoxyl 40 stearate

## COc1cc(Nc2cc(Oc3ccc(NC(=O)Nc4cc(C(C)(C)C)cc(NS(C)(=O)=O)c4OC)c4ccccc34)ccn2)ccc1P(C)(=O)O [Example 44, (4-((4-((4-(3-(5-(tert-Butyl)-2-methoxy-3-(methylsulfonamido)phenyl)ureido)naphthalen-1-yl)oxy)pyridin-2-yl)amino)-2-methoxyphenyl)(methyl)phosphinic acid]
Syk
  IC50: 17 nM
Jurkat cells
  % Viability at 1 μg/mL: 93.3%
  % Viability at 5 μg/mL: 90.1%
  % Viability at 20 μg/mL: 92.2%
[1]
  toxicity of the test item to the bacteria (mean colony count): reduction in the mean colony count
  mutagenic effects (revertant numbers): absence of any mutagenic effects
[2]; 0 min
  % Parent Remaining: 100%
[2]; 60° C., 1439 min
  % Parent Remaining: 98%
[3]; 5000 μg/plate in WP2 uvrA, absence of S-9 mix
  toxicity of the test item to the bacteria (mean colony count): reduction in the mean colony count
[3]
  mutagenic effects (revertant numbers): absence of any mutagenic effects
p38 MAPKα (MAPK14)
  IC50: 11 nM
B-Raf
  effect on the binding of B-Raf to its standard ligand: did not have any significant effect
B-Raf (V600E)
  effect on the binding of B-Raf (V600E) to its standard ligand: did not have any significant effect
c-Src
  IC50: 20 nM

## COc1cc(Nc2cc(Oc3ccc(NC(=O)Nc4cc(C(C)(C)C)cc(NS(C)(=O)=O)c4OC)c4ccccc34)ccn2)cc(OC)c1C(=O)NCCOCCOCCOP(=O)(O)O [Example 47, 2-(2-(2-(4-((4-((4-(3-(5-(tert-butyl)-2-methoxy-3-(methylsulfonamido)phenyl)ureido)-naphthalen-1-yl)oxy)pyridin-2-yl)amino)-2,6-dimethoxybenzamido)ethoxy)ethoxy)ethyl dihydrogen phosphate]
non-mutant kinases; 50 nM
  number of individual kinase hits S(1): 0
  number of individual kinase hits S(10): 17
  number of individual kinase hits S(35): 55
  KinomeScan Selectivity Score S(10): 0.042
  KinomeScan Selectivity Score S(35): 0.136
non-mutant kinases; 500 nM
  number of individual kinase hits S(1): 30
  number of individual kinase hits S(10): 90
  number of individual kinase hits S(35): 128
  KinomeScan Selectivity Score S(10): 0.223
  KinomeScan Selectivity Score S(35): 0.318
non-mutant kinases; 500 nM, non-mutant kinases with % Ctrl <1 / kinases tested
  KinomeScan Selectivity Score S(1): 0.074
Syk
  IC50: 8 nM
Jurkat cells
  % Viability at 1 μg/mL: 91.2%
  % Viability at 5 μg/mL: 96.0%
  % Viability at 20 μg/mL: 97.8%
[2]; 0 min
  % Parent Remaining: 100%
[2]; 60° C., 317 min
  % Parent Remaining: 104%
[2]; 60° C., 1450 min
  % Parent Remaining: 89%
p38 MAPKα (MAPK14)
  IC50: 4 nM
B-Raf
  effect on the binding of B-Raf to its standard ligand: did not have any significant effect
B-Raf (V600E)
  effect on the binding of B-Raf (V600E) to its standard ligand: did not have any significant effect
c-Src
  IC50: 15 nM

## COc1cc(Nc2cc(Oc3ccc(NC(=O)Nc4cc(C(C)(C)C)cc(NS(C)(=O)=O)c4OC)c4ccccc34)ccn2)ccc1C(=O)O [Example 1, 4-((4-((4-(3-(5-(tert-Butyl)-2-methoxy-3-(methylsulfonamido)phenyl)ureido)naphthalen-1-yl)oxy)pyridin-2-yl)amino)-2-methoxybenzoic acid]
Mitosis in PBMCs
  inhibition at 5 µg/mL: 2.4%
[1]
  toxicity of the test item to the bacteria (mean colony count): reduction in the mean colony count
  mutagenic effects (revertant numbers): absence of any mutagenic effects
[4]; LPS-stimulated rats, topical 0.01 mg/mL, mean ± SEM
  IL-1β (pg/mL) Anterior tissue: 980.0 ± 110.8 pg/mL
[4]; [7]
  cellular infiltration (cell counts) in the eyes: significantly and dose-dependently reduced
  cytokine IL-1β levels in anterior and posterior segments of the eyes: significantly and dose-dependently reduced
[3]
  mutagenic effects (revertant numbers): absence of any mutagenic effects
[5]; 1 mg/mL formulation, 5° C., up to 4 weeks
  stability in solution: stable
[5]; hydrochloride (HCl) salt, 1 mg/mL in 10 mM pH 7.2 phosphate buffer, 4.5% mannitol, 3% polyoxyl 40 stearate
  pH of solution: 7.05
[5]; [8]
  Osmolality: 310 mOsm/kg
  pH of solution: 7.00
[6]; 3 treatment days
  local tolerability of the formulations, Phase 2: acceptable without any aggravation
[6]; after a single dosing day
  local tolerability of the formulations, Phase 1: acceptable
[6]; one treatment day, 0.1 and 1.0 mg/mL, four daily instillations
  ocular reactions compared with vehicle controls, Phase 1: no differences in the frequency, severity and incidence
[6]; three consecutive treatment days, 0.1 and 1.0 mg/mL, four daily instillations
  main ocular reactions, Phase 2: limited to conjunctival redness (grade 1)
B-Raf
  effect on the binding of B-Raf to its standard ligand: did not have any significant effect
B-Raf (V600E)
  effect on the binding of B-Raf (V600E) to its standard ligand: did not have any significant effect
